The text below walks through data of ChEMBL document CHEMBL1134097, “Cyclooxygenase-inhibitory and antioxidant constituents of the aerial parts of Antirhea acutata” (Bioorg Med Chem Lett, 2001).

The term IC50 denotes the midpoint of a concentration-inhibition curve. A high value points to a need for much substance.

The target in experiment [1] is T1, Prostaglandin G/H synthase 2 (Homo sapiens, UniProt P35354).
T1 sequence (P35354 whole entry): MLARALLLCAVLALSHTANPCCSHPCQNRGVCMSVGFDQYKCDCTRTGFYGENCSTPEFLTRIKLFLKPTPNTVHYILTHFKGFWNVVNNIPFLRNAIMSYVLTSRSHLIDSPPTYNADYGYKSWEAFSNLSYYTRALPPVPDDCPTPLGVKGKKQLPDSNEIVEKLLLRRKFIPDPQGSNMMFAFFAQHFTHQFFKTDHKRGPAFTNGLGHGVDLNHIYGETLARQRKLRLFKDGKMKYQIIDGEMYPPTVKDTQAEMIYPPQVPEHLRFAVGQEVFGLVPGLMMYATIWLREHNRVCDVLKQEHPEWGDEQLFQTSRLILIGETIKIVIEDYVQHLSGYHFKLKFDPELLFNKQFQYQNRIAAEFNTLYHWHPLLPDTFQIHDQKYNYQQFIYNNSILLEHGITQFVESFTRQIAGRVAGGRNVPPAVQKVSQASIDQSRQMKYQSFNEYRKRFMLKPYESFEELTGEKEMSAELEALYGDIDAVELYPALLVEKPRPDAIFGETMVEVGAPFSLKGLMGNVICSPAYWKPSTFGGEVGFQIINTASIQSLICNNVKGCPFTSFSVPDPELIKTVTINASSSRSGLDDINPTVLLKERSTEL
Briefly: Activity against Prostaglandin G/H synthase 2 at > 70 ug/mL; inactive.

The target of experiment [2] is T2, Prostaglandin G/H synthase 1 (Homo sapiens, UniProt P23219). As to the kind of experiment: Activity against Prostaglandin G/H synthase 1 at > 70 ug/mL; inactive.
T2 sequence (P23219 whole entry): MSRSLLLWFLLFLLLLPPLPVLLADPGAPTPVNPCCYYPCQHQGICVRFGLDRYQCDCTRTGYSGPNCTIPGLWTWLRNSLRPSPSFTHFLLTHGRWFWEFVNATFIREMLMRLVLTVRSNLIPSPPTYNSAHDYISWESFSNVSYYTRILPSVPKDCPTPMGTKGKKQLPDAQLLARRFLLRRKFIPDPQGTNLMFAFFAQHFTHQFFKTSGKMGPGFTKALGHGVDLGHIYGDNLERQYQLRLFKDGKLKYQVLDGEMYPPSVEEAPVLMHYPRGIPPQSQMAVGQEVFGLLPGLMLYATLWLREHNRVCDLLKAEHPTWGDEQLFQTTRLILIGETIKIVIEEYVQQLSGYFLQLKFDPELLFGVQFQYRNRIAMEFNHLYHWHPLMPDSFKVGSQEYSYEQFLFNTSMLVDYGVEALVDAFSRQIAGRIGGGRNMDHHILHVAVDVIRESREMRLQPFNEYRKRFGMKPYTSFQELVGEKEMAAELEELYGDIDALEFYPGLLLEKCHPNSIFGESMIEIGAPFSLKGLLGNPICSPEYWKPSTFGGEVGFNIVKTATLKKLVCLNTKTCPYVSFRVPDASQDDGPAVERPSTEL
Experiment [3] in a line: Activity determined by 1,1-diphenyl-2-picrylhydrazyl (DPPH) free radical antioxidant assay. The class given is functional. On the technique in general: The DPPH test is a chemical assay of radical scavenging.
Experiment [4] in a line: Activity determined by cytochrome c reduction antioxidant assay. The class given is functional.
Experiment [5] concerns the target T1, Prostaglandin G/H synthase 2. As to the kind of experiment: Inhibitory concentration against Prostaglandin G/H synthase 2.
Experiment [6] addresses T2, Prostaglandin G/H synthase 1. As to the kind of experiment: Inhibitory concentration against Prostaglandin G/H synthase 1.

Structures are written as SMILES.

In the case of `C[C@H](CC[C@H](O)C(C)(C)O)[C@H]1CC[C@@]2(C)[C@@H]3CCC4[C@@]5(CC[C@H](O)[C@@]4(C)C(=O)O)C[C@@]35CC[C@]12C` (stereo partly specified), the half-inhibitory concentration (IC50) entry in experiment [1] and in experiment [2] was “Not Active” in each case.
As to `COC(=O)C[C@H](c1ccc(O)c(O)c1)c1c(O)cc(O)c2c1O[C@H](c1ccc(O)c(O)c1)[C@H](O)C2`, the IC50 in experiment [3] was found to be 29.1 µM; in experiment [4], 16.3 µM.
Regarding `C=C[C@@H]1[C@@H](O)C[C@@H]2[C@]3(CC[C@]4(C)[C@@H]([C@H](C)CCC=C(C)C)CC[C@@]24C)C[C@]13CCC(=O)O`, the values for the IC50 in experiment [5] and in experiment [6] were 4.7 µM and 43.7 µM, respectively.
